Legend:
Format in all cases: cell-based
MCF-7 cells = experiment: proliferation assay in estrogen-growth-dependent MCF-7 cell line; conditions: for proliferation effect on MCF-7 cells: 1 nM concentration
Method: The MCF-7 cell line was derived from a breast adenocarcinoma and, considering its growth dependency on estrogen, it is a valuable tool for evaluation of estrogenic properties of chemical compounds. Since MCF-7 cells express exclusively ERα, the proliferative effect of tested compounds is mediated mainly by this receptor.
MCF-7 cells were cultivated for 6 days in DMEM medium without phenol red containing 8% charcoal treated fetal calf serum and 2 mM glutamine. During this time the cells stopped proliferating and the medium was supplemented with different concentrations of tested compounds in DMSO. The cells were further cultured in the medium described above in the presence of tested compounds, and after 3 days the medium was changed and the tested compounds in DMSO were added to the medium once again. After another 3 days the amount of viable cells was measured using the kit […]-BLUE Cell Viability Assay (Promega) according to the manufacturer's instructions. The fluorescent measurement was carried out on the combined spectrophotometer ENVISION (PerkinElmer), and the results are shown in FIGS. 8 and 9.

human ERβ = target: T1, human ERβ (Homo sapiens, UniProt Q92731); experiment: reporter assay (luciferase) in COS-7 cells transfected with human ERβ; conditions: for EC50: COS-7 cells, 24 h with compound, luciferase, read-out: EC50 of tested ligands in the reporter assays, ER β; for ligand selectivity for ERβ in the reporter assays: ratio of relative activities of ERα and ERβ, E2 = 1.00
T1 construct: expressed in transfected cells; host or cells: COS-7
Method: (§1) The activity of some of the selected novel ligands of estrogen receptors was determined in reporter assays with the COS-7 cells. The reporter assay has an advantage over a classical determination of the ligand binding affinity for the receptor because in the case of steroid hormone receptors the high affinity of the ligand for the receptor doesn't always result in the equally high potency of activating the transcription via the receptor. The COS-7 cell line provides a significant advantage for this type of experiment, since it doesn't express endogenous ERα or ERβ at significant levels, and therefore it is highly suitable for the reporter assays. In addition, these compounds were also tested in the reporter assays with HEK293 cell-line.
(§2) COS-7 cells were transfected with the expression vector encoding human ERα or ERβ and with the reporter vector containing one estrogen responsive element followed by the minimal thymidine kinase promoter from the herpes simples virus. Luciferase was used as a reporter gene. The cells were seeded in a white 96-well plate after transfection, and were further cultivated in the DMEM medium without phenol red containing 2 mM glutamine, 20 mM Hepes, pH 7.5, 5 μg/ml insulin, 5 μg/ml human transferine, 100 μg/m1 bovine serum albumin (BSA). Serially diluted compounds in DMSO were added to cells 24 hours after transfection, and after the next 24 hours the luciferase activity was measured using the commercial STEADY-GLO Luciferase Assay Kit (Promega) according to the manufacturer's instructions. The luminescence was measured using the combined spectrophotometer ENVISION (PerkinElmer) with 1 s signal integration. […] The ligand selectivity for the given receptor was calculated as a ratio of relative activities of ERα and ERβ for the given ligand.

human ERα = target: T2, human ERα (Homo sapiens, UniProt P03372); experiment: reporter assay (luciferase) in COS-7 cells transfected with human ERα; conditions: for EC50: COS-7 cells, 24 h with compound, luciferase, read-out: EC50 of tested ligands in the reporter assays, ER α; for ligand selectivity for ERα in the reporter assays: ratio of relative activities of ERα and ERβ, E2 = 1.00
T2 construct: expressed in transfected cells; host or cells: COS-7
T2 sequence (P03372 1-595): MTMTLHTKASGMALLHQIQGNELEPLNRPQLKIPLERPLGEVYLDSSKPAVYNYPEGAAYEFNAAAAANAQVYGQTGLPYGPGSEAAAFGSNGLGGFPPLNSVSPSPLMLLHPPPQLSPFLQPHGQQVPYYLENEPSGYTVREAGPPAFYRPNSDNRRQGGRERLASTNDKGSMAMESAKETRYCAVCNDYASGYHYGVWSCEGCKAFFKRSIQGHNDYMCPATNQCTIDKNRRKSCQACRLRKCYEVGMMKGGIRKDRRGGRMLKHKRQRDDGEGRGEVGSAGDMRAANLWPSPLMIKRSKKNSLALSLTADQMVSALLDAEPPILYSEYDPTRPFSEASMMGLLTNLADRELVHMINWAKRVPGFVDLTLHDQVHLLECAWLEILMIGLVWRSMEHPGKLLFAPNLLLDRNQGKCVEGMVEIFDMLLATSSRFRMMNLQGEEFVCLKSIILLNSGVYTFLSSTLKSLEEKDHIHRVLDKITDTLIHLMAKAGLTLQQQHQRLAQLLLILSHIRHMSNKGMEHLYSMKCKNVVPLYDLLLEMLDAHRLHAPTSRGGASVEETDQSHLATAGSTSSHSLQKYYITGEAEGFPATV
Method: as §1, §2

T1 sequence (Q92731 whole entry): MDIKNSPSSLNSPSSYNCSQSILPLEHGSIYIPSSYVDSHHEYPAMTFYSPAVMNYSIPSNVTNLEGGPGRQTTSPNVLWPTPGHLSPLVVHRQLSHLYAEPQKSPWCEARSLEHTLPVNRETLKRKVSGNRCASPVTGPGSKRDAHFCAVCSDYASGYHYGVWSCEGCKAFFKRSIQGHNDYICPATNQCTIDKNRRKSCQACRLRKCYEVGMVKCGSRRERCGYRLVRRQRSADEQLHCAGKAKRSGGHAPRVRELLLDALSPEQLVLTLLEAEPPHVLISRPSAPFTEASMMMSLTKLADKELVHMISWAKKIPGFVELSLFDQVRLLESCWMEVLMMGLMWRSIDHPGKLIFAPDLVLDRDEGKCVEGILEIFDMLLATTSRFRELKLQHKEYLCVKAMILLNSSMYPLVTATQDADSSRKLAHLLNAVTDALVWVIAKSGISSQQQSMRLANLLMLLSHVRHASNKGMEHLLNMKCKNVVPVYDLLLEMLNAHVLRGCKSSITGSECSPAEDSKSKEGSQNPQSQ

Structure (SMILES)	proliferation effect on MCF-7 cells (MCF-7 cells)	EC50 (human ERβ)	stimulation of ERα in the reporter assays (human ERα; 1 nM)	EC50 (human ERα)	ligand selectivity for ERα in the reporter assays (human ERα)	ligand selectivity for ERβ in the reporter assays (human ERβ)	toxic effect on MCF-7 cells (MCF-7 cells; high concentrations of ligands (1-10 μM))
C[C@]12CC[C@@H]3c4ccc(O)cc4CC[C@H]3[C@@H]1CC[C@@]2(O)c1ccc2c(c1)CCC2 [PN214, 17α-(1,3-Dihydro-2H-inden-5-yl)-estradiol]	no activity	1.08 nM	doesn't stimulate ERα	21.1 nM	0.02	–	–
CC(=O)C1(C(C)=O)Cc2ccc([C@]3(O)CC[C@H]4[C@@H]5CCc6cc(O)ccc6[C@H]5CC[C@@]43C)cc2C1 [PN228, 17α-(2,2-Diacetyl-1,3-dihydro-2H-inden-5-yl)-estradiol]	–	60.4 nM	–	19 nM	1.16	0.86	–
Cc1ccc(S(=O)(=O)N2Cc3ccc([C@]4(O)CC[C@H]5[C@@H]6CCc7cc(O)ccc7[C@H]6CC[C@@]54C)cc3C2)cc1 [PN229, 17α-(1,3-Dihydro-2-tosyl-2H-indol-5-yl)-estradiol]	–	62.7 nM	–	–	–	–	–
CCOC(=O)C1(C(C)=O)Cc2ccc([C@]3(O)CC[C@H]4[C@@H]5CCc6cc(O)ccc6[C@H]5CC[C@@]43C)cc2C1 (stereo partly drawn) [PN207, 17α-[2-Acetyl-2-(ethoxycarbonyl)-1,3-dihydro-2H-inden-5-yl]-estradiol]	–	14.5 nM	–	–	–	–	–
CCOC(=O)C1(C(=O)OCC)Cc2ccc([C@]3(O)CC[C@H]4[C@@H]5CCc6cc(O)ccc6[C@H]5CC[C@@]43C)cc2C1 [PN202, 17α[2,2-Bis(ethoxycarbonyl)-1,3-dihydro-2H-inden-5-yl]-estradiol]	comparable to estradiol	19.3 nM	–	3.85 nM	1.83	0.55	–
CCOC(=O)C1(C#N)Cc2ccc([C@]3(O)CC[C@H]4[C@@H]5CCc6cc(O)ccc6[C@H]5CC[C@@]43C)cc2C1 (stereo partly drawn) [PN233, 17α-[2-Cyano-2-(ethoxycarbonyl)-1,3-dihydro-2H-inden-5-yl]-estradiol]	–	12.8 nM	–	–	–	–	–
C[C@]12CC[C@@H]3c4ccc(O)cc4CC[C@H]3[C@@H]1CC[C@@H]2O [Ligand E2, estradiol, reference compound]	–	–	–	–	–	–	toxic effect
